In patent US11649255B2, “Indazoles as hematopoietic progenitor kinase 1 (HPK1) inhibitors and methods using same” (1st Biotherapeutics, Inc., priority 2020, dated 2023):

These compounds were tested against recombinant human HPK1 (Homo sapiens (Human), UniProt Q92918) (assay: HPK1 kinase assay (ADP-Glo)). Settings: 25 μM ATP, MBP substrate.
Assay type: biochemical
Summary of the method: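 Activity was read as ADP formed, detected by ADP-Glo luminescence after the reaction of 5 ng recombinant human HPK1 with MBP and ATP (stocks 0.5 μg/μl and 25 μM) for 40 min at 30 °C. Buffer was Tris pH 7.5 with MgCl2, BSA and DTT, with compound in 0.5% DMSO. IC50 came from inhibition curves.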

recombinant human HPK1, sequence (Q92918 whole entry): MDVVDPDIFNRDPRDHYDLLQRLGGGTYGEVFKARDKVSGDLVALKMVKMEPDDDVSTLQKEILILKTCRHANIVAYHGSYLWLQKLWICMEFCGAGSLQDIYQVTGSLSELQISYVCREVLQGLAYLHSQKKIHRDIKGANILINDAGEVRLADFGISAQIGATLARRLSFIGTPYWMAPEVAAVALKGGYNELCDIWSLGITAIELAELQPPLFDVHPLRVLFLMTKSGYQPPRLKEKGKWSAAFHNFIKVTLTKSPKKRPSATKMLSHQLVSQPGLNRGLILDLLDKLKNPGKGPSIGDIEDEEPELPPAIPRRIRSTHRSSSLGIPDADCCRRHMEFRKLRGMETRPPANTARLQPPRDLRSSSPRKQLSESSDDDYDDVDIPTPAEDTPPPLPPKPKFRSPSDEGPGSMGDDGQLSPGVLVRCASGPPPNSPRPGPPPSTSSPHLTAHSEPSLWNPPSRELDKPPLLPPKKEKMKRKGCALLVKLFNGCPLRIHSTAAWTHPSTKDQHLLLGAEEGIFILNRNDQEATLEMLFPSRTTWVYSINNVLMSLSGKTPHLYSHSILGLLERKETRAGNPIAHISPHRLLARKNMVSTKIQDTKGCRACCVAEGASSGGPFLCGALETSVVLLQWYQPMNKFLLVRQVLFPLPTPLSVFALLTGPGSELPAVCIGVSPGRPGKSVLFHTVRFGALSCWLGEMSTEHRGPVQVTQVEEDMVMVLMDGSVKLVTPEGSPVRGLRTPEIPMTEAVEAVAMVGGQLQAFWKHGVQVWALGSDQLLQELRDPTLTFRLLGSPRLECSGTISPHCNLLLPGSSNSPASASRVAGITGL

SMILES | IC50
CN(C)C(=O)c1c(F)cc2[nH]ncc2c1-c1ccn2nc(NC(=O)[C@@H]3C[C@@H]3F)cc2c1 [Example 605, 6-fluoro-4-(2-((1S,2S)-2-fluorocyclopropane-1-carboxamido)pyrazolo[1,5-a]pyridin-5-yl)-N,N-dimethyl-1H-indazole-5-carboxamide] | > 1000 nM
CCOc1c(F)c(SC)c2[nH]ncc2c1-c1ccn2nc(NC(=O)[C@@H]3C[C@@H]3F)cc2c1 [Example 606, (1S,2S)-N-(5-(5-ethoxy-6-fluoro-7-(methylthio)-1H-indazol-4-yl)pyrazolo[1,5-a]pyridin-2-yl)-2-fluorocyclopropane-1-carboxamide] | < 100 nM
O=C(Nc1cc2cc(-c3c(Cl)c(F)c(OC(F)(F)F)c4[nH]ncc34)ccn2n1)[C@@H]1C[C@@H]1F [Example 607, (1S,2S)-N-(5-(5-chloro-6-fluoro-7-(trifluoromethoxy)-1H-indazol-4-yl)pyrazolo[1,5-a]pyridin-2-yl)-2-fluorocyclopropane-1-carboxamide] | < 100 nM
CCc1c(F)c(SC2(C#N)CC2)c2[nH]ncc2c1-c1ccn2nc(NC(=O)[C@@H]3C[C@@H]3F)cc2c1 [Example 608, (1S,2S)-N-(5-(7-((1-cyanocyclopropyl)thio)-5-ethyl-6-fluoro-1H-indazol-4-yl)pyrazolo[1,5-a]pyridin-2-yl)-2-fluorocyclopropane-1-carboxamide] | < 100 nM
O=C(Nc1cc2cc(-c3c(Cl)c(F)c(Nc4ccncc4)c4[nH]ncc34)ccn2n1)[C@@H]1C[C@@H]1F [Example 609, (1S,2S)-N-(5-(5-chloro-6-fluoro-7-(pyridin-4-ylamino)-1H-indazol-4-yl)pyrazolo[1,5-a]pyridin-2-yl)-2-fluorocyclopropane-1-carboxamide] | < 100 nM
CCOc1c(F)c(N(C)C)c2[nH]ncc2c1-c1ccn2nc(NC(=O)[C@@H]3C[C@@H]3F)cc2c1 [Example 610, (1S,2S)-N-(5-(7-(dimethylamino)-5-ethoxy-6-fluoro-1H-indazol-4-yl)pyrazolo[1,5-a]pyridin-2-yl)-2-fluorocyclopropane-1-carboxamide] | < 100 nM
CCOc1c(F)c(F)c2[nH]ncc2c1-c1ccn2nc(NC(=O)[C@@H]3C[C@@H]3F)cc2c1 [Example 611, (1S,2S)-N-(5-(5-ethoxy-6,7-difluoro-1H-indazol-4-yl)pyrazolo[1,5-a]pyridin-2-yl)-2-fluorocyclopropane-1-carboxamide] | < 100 nM
CN(CC#N)C(=O)c1c(F)c(Cl)c(-c2ccn3nc(NC(=O)[C@@H]4C[C@@H]4F)cc3c2)c2cn[nH]c12 [Example 612, 5-chloro-N-(cyanomethyl)-6-fluoro-4-(2-((1S,2S)-2-fluorocyclopropane-1-carboxamido)pyrazolo[1,5-a]pyridin-5-yl)-N-methyl-1H-indazole-7-carboxamide] | < 100 nM
CN(c1ncc(F)cn1)c1c(F)c(Cl)c(-c2ccn3nc(NC(=O)[C@@H]4C[C@@H]4F)cc3c2)c2cn[nH]c12 [Example 613, (1S,2S)-N-(5-(5-chloro-6-fluoro-7-((5-fluoropyrimidin-2-yl)(methyl)amino)-1H-indazol-4-yl)pyrazolo[1,5-a]pyridin-2-yl)-2-fluorocyclopropane-1-carboxamide] | < 100 nM
CN(c1ccncc1)c1c(F)c(Cl)c(-c2ccn3nc(NC(=O)[C@@H]4C[C@@H]4F)cc3c2)c2cn[nH]c12 [Example 614, (1S,2S)-N-(5-(5-chloro-6-fluoro-7-(methyl(pyridin-4-yl)amino)-1H-indazol-4-yl)pyrazolo[1,5-a]pyridin-2-yl)-2-fluorocyclopropane-1-carboxamide] | < 100 nM
CC(=O)N(CC#N)c1c(F)c(Cl)c(-c2ccn3nc(NC(=O)[C@@H]4C[C@@H]4F)cc3c2)c2cn[nH]c12 [Example 615, (1S,2S)-N-(5-(5-chloro-7-(N-(cyanomethyl)acetamido)-6-fluoro-1H-indazol-4-yl)pyrazolo[1,5-a]pyridin-2-yl)-2-fluorocyclopropane-1-carboxamide] | < 100 nM
CN(CCc1ccncc1)c1c(F)c(Cl)c(-c2ccn3nc(NC(=O)[C@@H]4C[C@@H]4F)cc3c2)c2cn[nH]c12 [Example 616, (1S,2S)-N-(5-(5-chloro-6-fluoro-7-(methyl(2-(pyridin-4-yl)ethyl)amino)-1H-indazol-4-yl)pyrazolo[1,5-a]pyridin-2-yl)-2-fluorocyclopropane-1-carboxamide] | < 100 nM
CN(c1ncncn1)c1c(F)c(Cl)c(-c2ccn3nc(NC(=O)[C@@H]4C[C@@H]4F)cc3c2)c2cn[nH]c12 [Example 617, (1S,2S)-N-(5-(5-chloro-6-fluoro-7-(methyl(1,3,5-triazin-2-yl)amino)-1H-indazol-4-yl)pyrazolo[1,5-a]pyridin-2-yl)-2-fluorocyclopropane-1-carboxamide] | < 100 nM
CN(c1nccnn1)c1c(F)c(Cl)c(-c2ccn3nc(NC(=O)[C@@H]4C[C@@H]4F)cc3c2)c2cn[nH]c12 [Example 618, (1S,2S)-N-(5-(5-chloro-6-fluoro-7-(methyl(1,2,4-triazin-3-yl)amino)-1H-indazol-4-yl)pyrazolo[1,5-a]pyridin-2-yl)-2-fluorocyclopropane-1-carboxamide] | < 100 nM

Second part, the compound after the results:

IC50 | SMILES
< 100 nM | CC(C)Nc1c(F)c(Cl)c(-c2ccn3nc(NC(=O)[C@@H]4C[C@@H]4F)cc3c2)c2cn[nH]c12 [Example 619, (1S,2S)-N-(5-(5-chloro-6-fluoro-7-(isopropylamino)-1H-indazol-4-yl)pyrazolo[1,5-a]pyridin-2-yl)-2-fluorocyclopropane-1-carboxamide]
< 100 nM | CN(c1c(F)c(Cl)c(-c2ccn3nc(NC(=O)[C@@H]4C[C@@H]4F)cc3c2)c2cn[nH]c12)C1CCC1 [Example 620, (1S,2S)-N-(5-(5-chloro-7-(cyclobutyl(methyl)amino)-6-fluoro-1H-indazol-4-yl)pyrazolo[1,5-a]pyridin-2-yl)-2-fluorocyclopropane-1-carboxamide]
< 100 nM | CCSc1c(F)c(Cl)c(-c2ccn3nc(NC(=O)[C@@H]4C[C@@H]4F)cc3c2)c2cn[nH]c12 [Example 621, (1S,2S)-N-(5-(5-chloro-7-(ethylthio)-6-fluoro-1H-indazol-4-yl)pyrazolo[1,5-a]pyridin-2-yl)-2-fluorocyclopropane-1-carboxamide]
< 100 nM | CC(C)N(C)c1c(F)c(Cl)c(-c2ccn3nc(NC(=O)[C@@H]4C[C@@H]4F)cc3c2)c2cn[nH]c12 [Example 622, (1S,2S)-N-(5-(5-chloro-6-fluoro-7-(isopropyl(methyl)amino)-1H-indazol-4-yl)pyrazolo[1,5-a]pyridin-2-yl)-2-fluorocyclopropane-1-carboxamide]
< 100 nM | CN1CCN(c2c(F)c(Cl)c(-c3ccn4nc(NC(=O)[C@@H]5C[C@@H]5F)cc4c3)c3cn[nH]c23)C1=O [Example 623, (1S,2S)-N-(5-(5-chloro-6-fluoro-7-(3-methyl-2-oxoimidazolidin-1-yl)-1H-indazol-4-yl)pyrazolo[1,5-a]pyridin-2-yl)-2-fluorocyclopropane-1-carboxamide]
< 100 nM | COC1CN(c2c(F)c(Cl)c(-c3ccn4nc(NC(=O)[C@@H]5C[C@@H]5F)cc4c3)c3cn[nH]c23)C1 [Example 624, (1S,2S)-N-(5-(5-chloro-6-fluoro-7-(3-methoxyazetidin-1-yl)-1H-indazol-4-yl)pyrazolo[1,5-a]pyridin-2-yl)-2-fluorocyclopropane-1-carboxamide]
< 100 nM | CN(c1c(F)c(Cl)c(-c2ccn3nc(NC(=O)[C@@H]4C[C@@H]4F)cc3c2)c2cn[nH]c12)C1CC1 [Example 625, (1S,2S)-N-(5-(5-chloro-7-(cyclopropyl(methyl)amino)-6-fluoro-1H-indazol-4-yl)pyrazolo[1,5-a]pyridin-2-yl)-2-fluorocyclopropane-1-carboxamide]
< 100 nM | O=Cc1c(F)c(Cl)c(-c2ccn3nc(NC(=O)[C@@H]4C[C@@H]4F)cc3c2)c2cn[nH]c12 [Example 626, (1S,2S)-N-(5-(5-chloro-6-fluoro-7-formyl-1H-indazol-4-yl)pyrazolo[1,5-a]pyridin-2-yl)-2-fluorocyclopropane-1-carboxamide]
< 100 nM | COCC1CN(c2c(F)c(Cl)c(-c3ccn4nc(NC(=O)[C@@H]5C[C@@H]5F)cc4c3)c3cn[nH]c23)C1 [Example 627, (1S,2S)-N-(5-(5-chloro-6-fluoro-7-(3-(methoxymethyl)azetidin-1-yl)-1H-indazol-4-yl)pyrazolo[1,5-a]pyridin-2-yl)-2-fluorocyclopropane-1-carboxamide]
< 100 nM | O=C(Nc1cc2cc(-c3c(Cl)c(F)c(N4CCS(=O)(=O)CC4)c4[nH]ncc34)ccn2n1)[C@@H]1C[C@@H]1F [Example 628, (1S,2S)-N-(5-(5-chloro-7-(1,1-dioxidothiomorpholino)-6-fluoro-1H-indazol-4-yl)pyrazolo[1,5-a]pyridin-2-yl)-2-fluorocyclopropane-1-carboxamide]
< 100 nM | CC1CN(c2c(F)c(Cl)c(-c3ccn4nc(NC(=O)[C@@H]5C[C@@H]5F)cc4c3)c3cn[nH]c23)C1 [Example 630, (1S,2S)-N-(5-(5-chloro-6-fluoro-7-(3-methylazetidin-1-yl)-1H-indazol-4-yl)pyrazolo[1,5-a]pyridin-2-yl)-2-fluorocyclopropane-1-carboxamide]
< 100 nM | O=C(Nc1cc2cc(-c3c(Cl)c(F)c(N4CCSCC4)c4[nH]ncc34)ccn2n1)[C@@H]1C[C@@H]1F [Example 631, (1S,2S)-N-(5-(5-chloro-6-fluoro-7-thiomorpholino-1H-indazol-4-yl)pyrazolo[1,5-a]pyridin-2-yl)-2-fluorocyclopropane-1-carboxamide]
< 100 nM | CC1(F)CN(c2c(F)c(Cl)c(-c3ccn4nc(NC(=O)[C@@H]5C[C@@H]5F)cc4c3)c3cn[nH]c23)C1 [Example 632, (1S,2S)-N-(5-(5-chloro-6-fluoro-7-(3-fluoro-3-methylazetidin-1-yl)-1H-indazol-4-yl)pyrazolo[1,5-a]pyridin-2-yl)-2-fluorocyclopropane-1-carboxamide]
